Here are results for ten molecules from ChEMBL document CHEMBL1201862, “PubChem BioAssay data set” (2004).

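Compound exposure: 48 hours, 5 concentrations, 96-well plates. Here, GI50 denotes the concentration required for 50% inhibition of growth.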 Active and inactive are the calls of the source. Rule as the data show it: active = GI50 up to about 1.1 µM and inactive = higher.

Test systems include DU-145; SF-539; COLO 205; T47D; OVCAR-5; RPMI-8226; PC-3; NCI/ADR-RES; HOP-62; Malme-3M; HT-29; OVCAR-8; U-251; HL-60; HCC 2998; HCT-116; CCRF-CEM; MOLT-4; IGROV-1; MCF7.
What all share (experiment): NCI anticancer screen, dose series, 48 h

For `O=C(Nn1c(-c2ccccc2)nc2ccccc2c1=O)c1ccc([N+](=O)[O-])cc1`, the GI50 in the assay with DU-145, in the assay with SF-539, with COLO 205, in the assay with T47D, with OVCAR-5 and with RPMI-8226 was > 100 µM (inactive) in each case. The GI50 in the assay on PC-3, in the assay with NCI/ADR-RES, in the assay on HOP-62, with Malme-3M, in the assay on HT-29 and in the assay on OVCAR-8 was > 100 µM (inactive) in each case. In addition, the GI50 was > 100 µM (inactive) with U-251; > 100 µM (inactive) in the assay with HL-60; > 100 µM (inactive) with HCC 2998; > 10 µM (inactive) with HCT-116; > 100 µM (inactive) with CCRF-CEM; > 100 µM (inactive) in the assay with MOLT-4. Further, the values for the GI50 in the assay with IGROV-1 and in the assay on MCF7 were > 100 µM (inactive) and 58.7 µM (inactive), respectively.

`CN(N=O)C(=O)N[C@H]1C(O)O[C@H](CO)[C@@H](O)[C@@H]1O` (stereo not given in full): the GI50 with DU-145 is > 750 µM (inactive); in the assay with SF-539 it was 612 µM (inactive); in the assay on COLO 205, 596 µM (inactive); in the assay with T47D, 611 µM (inactive); in the assay with OVCAR-5, 647 µM (inactive); with RPMI-8226, 565 µM (inactive). The GI50 is > 750 µM (inactive) in the assay with PC-3; 740 µM (inactive) in the assay with NCI/ADR-RES; 568 µM (inactive) in the assay with HOP-62; 600 µM (inactive) in the assay with Malme-3M; 618 µM (inactive) with HT-29; 617 µM (inactive) in the assay on OVCAR-8. Besides, the GI50 is 593 µM (inactive) in the assay on U-251; 499 µM (inactive) in the assay on HL-60; 533 µM (inactive) in the assay with HCC 2998; 573 µM (inactive) with HCT-116; 485 µM (inactive) with CCRF-CEM; 558 µM (inactive) in the assay with MOLT-4. Further, the GI50 in the assay on IGROV-1 is 618 µM (inactive); in the assay with MCF7, 518 µM (inactive).

For the molecule `CN(C)CCNCCCNc1c2ccccc2nc2cccc([N+](=O)[O-])c12`, the GI50 with DU-145 was < 0.0159 µM (active); in the assay with SF-539, 0.0676 µM (active); with COLO 205 it was < 0.0141 µM (active); with T47D it was 0.0387 µM (active); with OVCAR-5, < 0.0148 µM (active); in the assay with RPMI-8226, < 0.0138 µM (active). Also, the GI50 in the assay with PC-3 is < 0.0171 µM (active); with NCI/ADR-RES, 0.91 µM (active); in the assay with HOP-62, 0.0288 µM (active); in the assay on Malme-3M, 0.0461 µM (active); with HT-29 it was < 0.0125 µM (active); in the assay with OVCAR-8, < 0.0146 µM (active). For the same molecule, the GI50 in the assay with U-251 is < 0.0175 µM (active); with HL-60 it was < 0.0139 µM (active); in the assay on HCC 2998, < 0.0126 µM (active); in the assay on HCT-116, < 0.0161 µM (active); with CCRF-CEM, < 0.0121 µM (active); in the assay on MOLT-4 it was < 0.01 µM (active). The GI50 in the assay on IGROV-1 was < 0.0205 µM (active); in the assay with MCF7, 0.0102 µM (active).

With `O=C(/C=C/c1ccsc1)c1ccc(Cl)cc1`, the GI50 in the assay on DU-145 was > 100 µM (inactive); in the assay with SF-539 it was 76.7 µM (inactive); with COLO 205, > 100 µM (inactive); with T47D, 74.8 µM (inactive); with OVCAR-5, 56.1 µM (inactive); in the assay on RPMI-8226, 21 µM (inactive). Moreover, the GI50 was 70.8 µM (inactive) in the assay on PC-3; 78.3 µM (inactive) in the assay on NCI/ADR-RES; > 100 µM (inactive) in the assay on HOP-62; 33.1 µM (inactive) in the assay on Malme-3M; 36.5 µM (inactive) in the assay with HT-29; 64.7 µM (inactive) with OVCAR-8. The GI50 with U-251 was 66.4 µM (inactive); with HL-60, 19.1 µM (inactive); in the assay with HCC 2998, > 100 µM (inactive); with HCT-116, 23.7 µM (inactive); in the assay with CCRF-CEM, 21.9 µM (inactive); in the assay with MOLT-4 it was 19.2 µM (inactive). Also, the GI50 in the assay with IGROV-1 was > 100 µM (inactive); with MCF7, 34.8 µM (inactive).

On to `C=C1CCC(O)C/C1=C/C=C1\CCCC2(C)C1CCC2C(C)CCCC(C)C` (stereo not given), for which the GI50 in the assay with DU-145 was 20.9 µM (inactive); in the assay with SF-539, 20.1 µM (inactive); with COLO 205 it was 19 µM (inactive); in the assay on T47D it was 19 µM (inactive); in the assay on OVCAR-5, 20.3 µM (inactive); with RPMI-8226, 23.8 µM (inactive). The GI50 with PC-3 was 18.8 µM (inactive); with NCI/ADR-RES, 18.2 µM (inactive); with HOP-62, 19.5 µM (inactive); with Malme-3M it was 18 µM (inactive); in the assay with HT-29 it was 15.3 µM (inactive); with OVCAR-8, 18.1 µM (inactive). The GI50 is 18.6 µM (inactive) in the assay on U-251; 23.2 µM (inactive) with HL-60; 21.2 µM (inactive) in the assay on HCC 2998; 15.2 µM (inactive) in the assay with HCT-116; 24.5 µM (inactive) in the assay with CCRF-CEM; 20.2 µM (inactive) with MOLT-4. In addition, the GI50 in the assay with IGROV-1 was 17.3 µM (inactive); with MCF7, 12.9 µM (inactive).

As for `C/N=C(N)/N=C(\N)Nc1cc2ccccc2c2ccccc12`, the GI50 with DU-145 was 15.2 µM (inactive); in the assay on SF-539 it was 15.2 µM (inactive); with COLO 205, 13.7 µM (inactive); in the assay with T47D, 14.8 µM (inactive); with OVCAR-5 it was 17.5 µM (inactive); in the assay with RPMI-8226, 15.5 µM (inactive). Also, the GI50 with PC-3 is 15.8 µM (inactive); with NCI/ADR-RES, 20.6 µM (inactive); in the assay on HOP-62, 17.5 µM (inactive); in the assay on Malme-3M, 15 µM (inactive); in the assay with HT-29 it was 15 µM (inactive); in the assay on OVCAR-8, 16.8 µM (inactive). Besides, the GI50 in the assay with U-251 was 15.2 µM (inactive); in the assay with HL-60, 4.06 µM (inactive); with HCC 2998 it was 2.44 µM (inactive); with HCT-116 it was 12.9 µM (inactive); in the assay with CCRF-CEM, 7.74 µM (inactive); in the assay on MOLT-4 it was 10.4 µM (inactive). In addition, the GI50 is 17.9 µM (inactive) in the assay with IGROV-1 and 13.2 µM (inactive) in the assay on MCF7.

For the molecule `COc1cccc(N2C(=O)C3CC(CC(C)(C)C)c4c([nH]c5ccccc45)C3C2=O)c1` (stereo not given), the GI50 in the assay with DU-145 was > 10 µM (inactive); in the assay with SF-539, 2.56 µM (inactive); in the assay on COLO 205, > 10 µM (inactive); with T47D, > 10 µM (inactive); in the assay on OVCAR-5 it was > 10 µM (inactive); in the assay on RPMI-8226, > 10 µM (inactive). The GI50 in the assay with PC-3 was > 10 µM (inactive); in the assay with NCI/ADR-RES it was > 10 µM (inactive); in the assay with HOP-62, 9.16 µM (inactive); in the assay with Malme-3M, 5.9 µM (inactive); in the assay with HT-29, > 10 µM (inactive); in the assay with OVCAR-8 it was 3.56 µM (inactive). Further, the GI50 in the assay on U-251 was 7.91 µM (inactive); in the assay with HL-60, > 10 µM (inactive); in the assay on HCC 2998, > 10 µM (inactive); with HCT-116 it was 4.93 µM (inactive); in the assay on CCRF-CEM it was > 10 µM (inactive); in the assay on MOLT-4, > 10 µM (inactive). Besides, the GI50 is > 10 µM (inactive) in the assay on IGROV-1 and 8.55 µM (inactive) in the assay on MCF7.

In the case of `COc1cc(NCCC2CCCCN2)c2ncccc2c1` (stereo not given), the GI50 is > 76.9 µM (inactive) in the assay with DU-145; > 100 µM (inactive) in the assay with SF-539; 13.5 µM (inactive) in the assay on COLO 205; 0.397 µM (active) with T47D; > 100 µM (inactive) in the assay with OVCAR-5; > 48.3 µM (inactive) in the assay on RPMI-8226. Further, the GI50 is 74.5 µM (inactive) with PC-3; > 100 µM (inactive) in the assay on NCI/ADR-RES; > 96.4 µM (inactive) with HOP-62; 26.9 µM (inactive) in the assay with Malme-3M; 41.7 µM (inactive) in the assay on HT-29; > 100 µM (inactive) in the assay on OVCAR-8. Besides, the GI50 in the assay on U-251 was 56.4 µM (inactive); with HL-60 it was 3.56 µM (inactive); in the assay with HCC 2998, 16.4 µM (inactive); with HCT-116 it was 36 µM (inactive); in the assay with CCRF-CEM, 25.1 µM (inactive); with MOLT-4, 7.11 µM (inactive). The GI50 in the assay with IGROV-1 was 8.87 µM (inactive); in the assay on MCF7 it was 0.31 µM (active).

As to `CC1OC(c2ccc3c(c2O)C(=O)C2=C(C3=O)C3(O)C(=O)CC(C)(O)CC3(O)C=C2)CC(O)C1O` (stereo not given), the GI50 was 15.6 µM (inactive) in the assay on DU-145; 17.7 µM (inactive) with SF-539; 1.75 µM (inactive) with COLO 205; 11.5 µM (inactive) with T47D; 17 µM (inactive) in the assay with OVCAR-5; 9.73 µM (inactive) in the assay with RPMI-8226. Moreover, the GI50 in the assay with PC-3 was 23.3 µM (inactive); in the assay on NCI/ADR-RES, 19.5 µM (inactive); in the assay with HOP-62, 26.8 µM (inactive); in the assay with Malme-3M it was 2.99 µM (inactive); in the assay on HT-29, 5.4 µM (inactive); in the assay with OVCAR-8 it was 14.1 µM (inactive). Moreover, the GI50 with U-251 is 16.7 µM (inactive); with HL-60, 1.98 µM (inactive); in the assay on HCC 2998, 15.5 µM (inactive); in the assay on HCT-116, 5.26 µM (inactive); with CCRF-CEM, 2.05 µM (inactive); in the assay with MOLT-4 it was 3.81 µM (inactive). Further, the GI50 in the assay on IGROV-1 is 13.4 µM (inactive); in the assay on MCF7, 2.79 µM (inactive).

`CCN(CC)CC(O)C1CCC(c2ccccc2)CC1` (stereo not given): the GI50 in the assay on DU-145 was 61 µM (inactive); in the assay with SF-539, 16.7 µM (inactive); in the assay with COLO 205 it was 12.8 µM (inactive); with T47D it was 26.9 µM (inactive); with OVCAR-5 it was 23.2 µM (inactive); in the assay with RPMI-8226 it was 13.5 µM (inactive). For the same molecule, the GI50 in the assay on PC-3 was 43.6 µM (inactive); in the assay on NCI/ADR-RES, 43.2 µM (inactive); in the assay with HOP-62, 30.9 µM (inactive); in the assay with Malme-3M it was 16.3 µM (inactive); in the assay on HT-29, 10.5 µM (inactive); in the assay on OVCAR-8 it was 16.3 µM (inactive). In addition, the GI50 was 19.8 µM (inactive) in the assay with U-251; 28.9 µM (inactive) in the assay on HL-60; 0.627 µM (active) in the assay with HCC 2998; 23.2 µM (inactive) with HCT-116; 27.4 µM (inactive) in the assay on CCRF-CEM; 43.8 µM (inactive) in the assay with MOLT-4. In addition, the values for the GI50 in the assay with IGROV-1 and in the assay on MCF7 were 35.2 µM (inactive) and 22.5 µM (inactive), respectively.
